Assay results from patent US10570131B2, “Heterocyclic compounds and their use in preventing or treating bacterial infections” (MUTABILIS, priority 2015, dated 2020).
Structures can show the parent of a compound that is named as a salt.

Assays:
CTX-M-15 = molecular target: T1, CTX-M-15 (Escherichia coli, UniProt Q9EXV5); assay: β-lactamase inhibitory activity, IC50 (nitrocefin hydrolysis); type: biochemical
T1 construct: made in house; host or cells: E. coli expression vector
Description: (§1) Method 1: β-lactamase Inhibitory Activity, Determination of IC50 (Table 1)
(§2) Enzyme activity was monitored by spectrophotometric measurement of nitrocefin (NCF—TOKU-E, N005) hydrolysis at 485 nm, at room temperature and in assay buffer A: 100 mM Phosphate pH7, 2% glycerol and 0.1 mg/mL Bovine serum albumin (Sigma, B4287). Enzymes were cloned in E. coli expression vector, expressed and purified in house using classical procedures. To a transparent polystyrene plate (Corning, 3628) were added in each well 5 μL DMSO or inhibitor dilutions in DMSO and 80 μL enzyme in buffer A. Plates were immediately read at 485 nm in a microplate spectrophotometer (BioTek, PowerWave HT) to enable background subtraction. After 30 min of pre-incubation at room temperature, 15 μL of NCF (200 μM final) were finally added in each well. Final enzyme concentrations were 0.1 nM (TEM-1), 0.075 nM (SHV-1), 0.4 nM (CTX-M-15), 1 nM (KPC-2), 0.2 nM (P99 AmpC), 0.2 nM (CMY-37), 0.4 nM (AmpC P. aeruginosa), 0.2 nM (OXA-1), 1.2 nM (OXA-11), 0.4 nM (OXA-15) and 0.3 nM (OXA-48). After 20 min incubation at room temperature, plates were once again read at 485 nm. Enzyme activity was obtained by subtracting the final signal by the background, and was converted to enzyme inhibition using non inhibited wells. IC50 curves were fitted to a classical Langmuir equilibrium model with Hill slope using XLFIT (IDBS).

KPC-2 = molecular target: T2, KPC-2 (Klebsiella pneumoniae, UniProt Q9F663); assay: as above; type: biochemical
T2 construct: made in house; host or cells: E. coli expression vector
Description: as §1, §2

OXA-1 = molecular target: T3, OXA-1 (Escherichia coli, UniProt P13661); assay: as above; type: biochemical
T3 construct: made in house; host or cells: E. coli expression vector
Description: as §1, §2

OXA-11 = molecular target: T4, OXA-11 (Pseudomonas aeruginosa, UniProt Q06778); assay: as above; type: biochemical
T4 construct: made in house; host or cells: E. coli expression vector
Description: as §1, §2

OXA-48 = molecular target: T5, OXA-48 (Klebsiella pneumoniae, UniProt Q6XEC0); assay: as above; type: biochemical
T5 construct: made in house; host or cells: E. coli expression vector
Description: as §1, §2

SHV-1 = molecular target: T6, SHV-1 (Klebsiella pneumoniae, UniProt P0AD64); assay: as above; type: biochemical
T6 construct: made in house; host or cells: E. coli expression vector
Description: as §1, §2

TEM-1 = molecular target: T7, TEM-1 (Escherichia coli, UniProt P62593); assay: as above; type: biochemical; conditions: class (A); 30 min pre-incubation; NCF 200 μM
T7 construct: made in house; host or cells: E. coli expression vector
Description: as §1, §2

E. coli UFR61O = assay: MIC of ceftazidime alone and in combination with compounds (synergy), broth microdilution; type: cell-based; conditions: MIC of ceftazidime with compound fixed at 4 μg/mL; strain UFR61O (TEM-1, KPC-2)
K. pneumoniae 160143 = assay: as above; type: cell-based; conditions: MIC of ceftazidime with compound fixed at 4 μg/mL; strain 160143 (TEM-1, SHV-1, CTX-M-15, KPC-2, OXA-1)
E. cloacae UFR70 = assay: as above; type: cell-based; conditions: MIC of ceftazidime with compound fixed at 4 μg/mL; strain UFR70 (TEM-1, CTX-M-15, CMY-2, OXA-1, Porin loss)
E. coli 131119 = assay: as above; type: cell-based; conditions: MIC of ceftazidime with compound fixed at 4 μg/mL; strain 131119 (TEM-1, OXA-48)
Description: (§3) Compounds of the present invention were assessed against genotyped bacterial strains alone or in combination with the β-lactam ceftazidime (CAZ). […] Briefly, compounds alone according to the invention were prepared in DMSO and spotted (2 μL each) on sterile polystyrene plates (Corning, 3788). […] Log phase bacterial suspensions were adjusted to a final density of 5×10^5 cfu/mL in cation-adjusted Mueller-Hinton broth (Becton-Dickinson) and added to each well (98 μL). Microplates were incubated for 16-20 h at 35° C. in ambient air. The MIC of the compounds was defined as the lowest concentration of said compounds that prevented bacterial growth as read by visual inspection.

E. coli RGN238 = assay: as above; type: cell-based; conditions: MIC of ceftazidime with compound fixed at 4 μg/mL; strain RGN238 (OXA-1)
Description: as §3

E. coli UFR74 = assay: as above; type: cell-based; conditions: MIC of ceftazidime with compound fixed at 4 μg/mL; strain UFR74 (SHV-1, DHA-1)
Description: as §3

K. pneumoniae 6299 = assay: as above; type: cell-based; conditions: MIC of ceftazidime with compound fixed at 4 μg/mL; strain 6299 (TEM-1, SHV-11, OXA-163)
Description: as §3

K. pneumoniae BAA-1898 = assay: as above; type: cell-based; conditions: MIC of ceftazidime with compound fixed at 4 μg/mL; strain BAA-1898 (TEM-1, SHV-11, SHV-12, KPC-2)
Description: as §3

K. pneumoniae UFR77 = assay: as above; type: cell-based; conditions: MIC of ceftazidime with compound fixed at 4 μg/mL; strain UFR77 (CMY-2)
Description: as §3

P. aeruginosa CIP105250 = assay: as above; type: cell-based; conditions: MIC of ceftazidime with compound fixed at 4 μg/mL; strain CIP105250 (OXA-15)
Description: as §3

P. aeruginosa CIP107051 = assay: as above; type: cell-based; conditions: MIC of ceftazidime with compound fixed at 4 μg/mL; strain CIP107051 (TEM-24)
Description: as §3

E. coli UFR18 = assay: as above; type: cell-based; conditions: MIC of ceftazidime with compound fixed at 4 μg/mL; strain UFR18 (CTX-M-15, OXA-204)
K. pneumoniae UFR24 = type: cell-based; conditions: MIC of ceftazidime with compound fixed at 4 μg/mL; strain UFR24 (TEM-1, SHV-2, SHV-11, OXA-1, OXA-48, OXA-47)
E. coli UFR32 = assay: MIC of ceftazidime alone and in combination with compounds (synergy), broth microdilution; type: cell-based; conditions: MIC of ceftazidime with compound fixed at 4 μg/mL; strain UFR32 (TEM-1, VEB-1, OXA-10)

T7 sequence (P62593 24-286 limits assumed): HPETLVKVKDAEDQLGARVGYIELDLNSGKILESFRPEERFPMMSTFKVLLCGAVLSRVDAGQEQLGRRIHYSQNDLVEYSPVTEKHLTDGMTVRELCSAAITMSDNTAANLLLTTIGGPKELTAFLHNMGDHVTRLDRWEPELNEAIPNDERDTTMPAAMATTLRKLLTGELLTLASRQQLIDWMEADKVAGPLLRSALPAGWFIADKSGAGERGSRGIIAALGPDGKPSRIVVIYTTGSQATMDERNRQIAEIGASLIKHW
T5 sequence (Q6XEC0 23-265 limits assumed): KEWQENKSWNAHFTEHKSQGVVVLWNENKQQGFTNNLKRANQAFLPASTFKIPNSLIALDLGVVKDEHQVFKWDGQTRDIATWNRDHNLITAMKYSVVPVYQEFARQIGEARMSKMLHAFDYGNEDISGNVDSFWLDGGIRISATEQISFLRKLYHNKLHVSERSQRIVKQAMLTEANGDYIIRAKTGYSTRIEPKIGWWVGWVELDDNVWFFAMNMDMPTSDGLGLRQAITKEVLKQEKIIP
T3 sequence (P13661 26-276): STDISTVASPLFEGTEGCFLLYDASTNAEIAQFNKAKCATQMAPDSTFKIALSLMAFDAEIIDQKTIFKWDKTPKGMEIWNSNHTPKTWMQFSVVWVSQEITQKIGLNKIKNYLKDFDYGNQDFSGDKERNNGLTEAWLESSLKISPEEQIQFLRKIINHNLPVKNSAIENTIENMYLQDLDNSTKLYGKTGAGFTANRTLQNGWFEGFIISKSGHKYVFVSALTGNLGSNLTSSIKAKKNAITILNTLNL
T1 sequence (Q9EXV5 entry or part of it): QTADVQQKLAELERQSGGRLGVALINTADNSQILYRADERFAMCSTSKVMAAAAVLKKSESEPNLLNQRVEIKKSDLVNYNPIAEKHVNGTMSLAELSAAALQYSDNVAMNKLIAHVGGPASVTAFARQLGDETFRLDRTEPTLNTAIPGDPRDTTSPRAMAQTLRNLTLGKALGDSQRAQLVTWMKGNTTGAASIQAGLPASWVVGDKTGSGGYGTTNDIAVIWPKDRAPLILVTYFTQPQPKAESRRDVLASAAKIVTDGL
T6 sequence (P0AD64 22-286): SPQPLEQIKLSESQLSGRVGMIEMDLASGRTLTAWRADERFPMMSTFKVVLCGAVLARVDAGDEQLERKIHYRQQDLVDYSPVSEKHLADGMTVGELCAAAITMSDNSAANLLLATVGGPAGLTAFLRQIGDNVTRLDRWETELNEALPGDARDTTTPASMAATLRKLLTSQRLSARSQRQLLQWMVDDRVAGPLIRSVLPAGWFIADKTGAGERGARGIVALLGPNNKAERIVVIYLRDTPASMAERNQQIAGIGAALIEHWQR
T4 sequence (Q06778 21-266): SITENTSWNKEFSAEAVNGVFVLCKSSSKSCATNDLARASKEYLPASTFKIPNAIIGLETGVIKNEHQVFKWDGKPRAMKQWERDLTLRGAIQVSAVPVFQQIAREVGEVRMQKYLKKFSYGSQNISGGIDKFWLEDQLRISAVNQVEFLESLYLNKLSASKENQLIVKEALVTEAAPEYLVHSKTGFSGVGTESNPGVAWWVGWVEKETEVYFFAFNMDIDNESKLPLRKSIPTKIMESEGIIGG
T2 sequence (Q9F663 25-293 limits assumed): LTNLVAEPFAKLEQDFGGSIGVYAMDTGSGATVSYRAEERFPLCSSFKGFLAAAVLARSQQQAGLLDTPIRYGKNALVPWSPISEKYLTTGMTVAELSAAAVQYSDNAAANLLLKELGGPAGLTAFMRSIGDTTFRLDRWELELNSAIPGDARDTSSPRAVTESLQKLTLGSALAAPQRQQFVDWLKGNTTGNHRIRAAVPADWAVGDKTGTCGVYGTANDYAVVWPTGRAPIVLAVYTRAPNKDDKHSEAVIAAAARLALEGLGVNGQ

SMILES | IC50 (CTX-M-15) | IC50 (KPC-2) | IC50 (OXA-1) | IC50 (OXA-11) | IC50 (OXA-48) | IC50 (SHV-1) | IC50 (TEM-1) | MIC, combination of CAZ and compounds of the invention at 4 μg/mL (E. coli UFR61O) | MIC, combination of CAZ and compounds of the invention at 4 μg/mL (K. pneumoniae 160143) | MIC, combination of CAZ and compounds of the invention at 4 μg/mL (E. cloacae UFR70) | MIC, combination of CAZ and compounds of the invention at 4 μg/mL (E. coli 131119) | MIC, combination of CAZ and compounds of the invention at 4 μg/mL (E. coli RGN238) | MIC, combination of CAZ and compounds of the invention at 4 μg/mL (E. coli UFR74) | MIC, combination of CAZ and compounds of the invention at 4 μg/mL (K. pneumoniae 6299) | MIC, combination of CAZ and compounds of the invention at 4 μg/mL (K. pneumoniae BAA-1898) | MIC, combination of CAZ and compounds of the invention at 4 μg/mL (K. pneumoniae UFR77) | MIC, combination of CAZ and compounds of the invention at 4 μg/mL (P. aeruginosa CIP105250) | MIC, combination of CAZ and compounds of the invention at 4 μg/mL (P. aeruginosa CIP107051) | MIC, combination of CAZ and compounds of the invention at 4 μg/mL (E. coli UFR18) | MIC, combination of CAZ and compounds of the invention at 4 μg/mL (K. pneumoniae UFR24) | also measured
CNC(=O)CON=C1C[C@@H](C(N)=O)N2C[C@@H]1N(OS(=O)(=O)[O-])C2=O.[Na+] (mixture of isomers) [Example 2, sodium [(2S,5S)-2-carbamoyl-4-[2-(methylamino)-2-oxo-ethoxy]imino-7-oxo-1,6-diazabicyclo[3.2.1]octan-6-yl] sulfate] | 0.76 nM | 3.9 nM | 6.1 nM | 6.8 nM | 3.5 nM | 0.74 nM | 1.7 nM | 0.5 µg/mL | 8 µg/mL | 8 µg/mL | ≤0.25 µg/mL | ≤0.25 µg/mL | 0.5 µg/mL | 2 µg/mL | 64 µg/mL | 32 µg/mL | 64 µg/mL | 16 µg/mL | 1 µg/mL | 2 µg/mL | MIC, combination of CAZ and compounds of the invention at 4 μg/mL (E. coli UFR32): 0.5 µg/mL
NC[C@@H]1CC(=NOCC(N)=O)[C@@H]2CN1C(=O)N2OS(=O)(=O)O (mixture of isomers) [Example 5, sodium and 2,2,2-trifluroacetate [(2S,5S)-4-(2-amino-2-oxo-ethoxy)imino-2-(azaniumylmethyl)-7-oxo-1,6-diazabicyclo[3.2.1]octan-6-yl] sulfate] | 130 nM | 1800 nM | 370 nM | 430 nM | 180 nM | 64 nM | 110 nM | <0.25 µg/mL | 0.5 µg/mL | 1 µg/mL | <0.25 µg/mL | ≤0.25 µg/mL | 1 µg/mL | 0.25 µg/mL | 0.5 µg/mL | 2 µg/mL | ≤0.25 µg/mL | <0.25 µg/mL | <0.25 µg/mL | 1 µg/mL | MIC, combination of CAZ and compounds of the invention at 4 μg/mL (E. coli UFR32): ≤0.25 µg/mL
NC[C@@H]1CC(=O)[C@@H]2CN1C(=O)N2OS(=O)(=O)O [Example 6, 2,2,2-trifluroacetate and sodium [(2S,5S)-2-(azaniumylmethyl)-4,7-dioxo-1,6-diazabicyclo[3.2.1]octan-6-yl] sulfate] | 510 nM | 5100 nM | 1200 nM | 1600 nM | 840 nM | 340 nM | 280 nM | 1 µg/mL | 2 µg/mL | 2 µg/mL | ≤0.25 µg/mL | ≤0.25 µg/mL | 0.5 µg/mL | 2 µg/mL | 1 µg/mL | 2 µg/mL | 2 µg/mL | 0.125 µg/mL | ≤0.25 µg/mL | 4 µg/mL | MIC, combination of CAZ and compounds of the invention at 4 μg/mL (E. coli UFR32): <0.25 µg/mL
